Tested on: wild-type C57:129 F2 hybrid mice
Experiment: Dexamethasone-induced ocular hypertension model (IOP by TonoLab tonometer)
Format: in vivo, mouse
Method: Twenty eight day mouse Alzet mini-osmotic pumps (DURECT Corp., Cupertino, Calif.) were filled with a solution of water soluble dexamethasone (dex) in PBS (Sigma, St. Louis, Mo.) so that they would release roughly 0.1 mg of dex per day. Once the pumps were filled with the dex, the pumps were allowed to equilibrate in PBS at 37° C. for 60 hours. The equilibrated pumps were surgically placed subcutaneously on the backs of wild-type C57:129 F2 hybrid mice weighing between 25 and 35 grams. Surgical incisions were sutured with 5-0 braided silk (ROBOZ, Gaithersburg, Md.) and treated with antibiotic ointment throughout the entire duration of study. Surgical incisions were glued with TissueMend II (Webster Veterinary, Houston, Tex.). Analgesic (buprenorphine) was given through IP injection the day of surgery and 24 hours after surgery. Intraocular pressure (IOP) was measured on these mice using a TonoLab (Colonial Medical Supply Co., Franconia, N.H.) tonometer. Mice were mildly sedated with isoflurane and topically anesthetized with 0.5% proparacaine (Akorn, Buffalo Grove, Ill.) before IOP measurements were taken. Baseline IOP was measured 1 day prior to mini-pump implantation. After mini-pump implantation, IOP measurements were taken 2-3 times per week for 4 weeks. Pharmacology studies with potential ocular hypotensive compounds were performed between 21 and 28 days after implantation.

`O=C(C[C@@H]1CCCN1)Nc1ncc(-c2cc(C(F)F)nn2-c2c(Cl)cccc2Cl)s1` [Compound 9, (S)—N-(5-(1-(2,6-dichlorophenyl)-3-(difluoromethyl)-1H-pyrazol-5-yl)thiazol-2-yl)-2-(pyrrolidin-2-yl)acetamide] was tested, and the “Average changes in IOP measured from time of dosing” value (“Average changes in IOP measured” below) (3 μg/eye, 0 hr) was 0.00 (0.0), the “Average changes in IOP measured” value (3 μg/eye, 2 hr) was −4.10 (2.6) and the “Average changes in IOP measured” value (3 μg/eye, 4 hr) was −3.81 (3.8). For the same compound, the “Average changes in IOP measured” value (3 μg/eye, 6 hr) was −3.19 (3.2), the “Average changes in IOP measured” value (15 μg/eye, 0 hr) was 0.00 (0.0) and the “Average changes in IOP measured” value (15 μg/eye, 2 hr) was −4.25 (2.7). The “Average changes in IOP measured” value (15 μg/eye, 4 hr) was −4.88 (5.1), the “Average changes in IOP measured” value (15 μg/eye, 6 hr) was −4.88 (4.2) and the “Average changes in IOP measured” value (30 μg/eye, 0 hr) was 0.00 (0.0). The “Average changes in IOP measured” value (30 μg/eye, 2 hr) was −3.33 (4.2), the “Average changes in IOP measured” value (30 μg/eye, 4 hr) was −2.86 (1.1) and the “Average changes in IOP measured” value (30 μg/eye, 6 hr) was −2.29 (2.2). For the same compound, the “Effect in the ocular hypertension model (FIG. 1)” value (dose response, FIG. 1) was “dose dependent effect”.

Reference: patent publication US20130059896A1, “5-(1H-PYRAZOL-5-YL)THIAZOLE-BASED COMPOUNDS FOR THE TREATMENT OF DISEASES AND DISORDERS OF THE EYE” (priority 2010, published 2013)
